Assay results taken from article PMC12648656, “Palladium(II) Complexes with Noncovalent Interactions with DNA: Solution Speciation Controlled by Solvent Identity, pH, and Concentration” (Inorganic Chemistry, 2025).

How the values were obtained:
[1] = Spectrophotometric (UV-vis) pH titrations for proton dissociation constants; type: physicochemical; settings: 60% (v/v) DMSO/H2O
Procedure: Spectrophotometric titrations were applied to study the equilibrium processes (proton dissociation and complex dissociation/formation) in DMSO/H2O mixtures due to the limited aqueous solubility of the compounds. The calibration of the electrode system was performed by strong acid–strong base pH-potentiometric titrations in 30% (v/v) and 60% (v/v) DMSO/H2O solvent mixtures at 25.0 ± 0.1 °C as described in our previous works. , KCl (0.1 M) was the supporting electrolyte to maintain constant ionic strength, which refers to the chloride ion concentration in blood plasma. […] The initial sample volume was 5 mL. Spectrophotometric titrations were performed in the pH range 1.8–12.5 for 30% (v/v) DMSO/H2O medium and 1.8–14.0 for 60% (v/v) DMSO/H2O medium. Prior to the titrations, purified argon was passed through the samples for approximately 10 min to remove CO2 traces, and argon was also passed over the samples during these measurements. The proton dissociation constants were calculated by using the computer program PSEQUAD.

[2] = HPLC analysis of aqueous solution integrity; type: physicochemical; settings: 20 μM in 3% DMSO aqueous solution, after 24 h, 254 nm
Procedure: Prior to the injection to the column, 20 μL was taken and diluted with 180 μL of HPLC-grade acetonitrile at various time points (t = 0 and 24 h). 20 μL of this diluted sample was injected in the Zorbax Eclipse Plus C18 column (4.6 × 100 mm, 3.5 μm): flow rate, 1 mL/min; detection, UV 254 nm; flow solvent system A/B (acetonitrile/water, v/v): 70:30 and analyzed with 254 nm radiation up to 10 min.

[3] = molecular target: T1, hen egg white lysozyme (HEWL) (Gallus gallus, UniProt P00698); experiment: Reaction with lysozyme followed by UV-vis at 280 nm, pseudo-first-order kinetics; type: binding; settings: metal:protein 3:1, 5 mM Tris/3% DMSO, 37 °C, absorbance at 280 nm
T1 construct: a model protein, namely HEWL (hen egg white lysozyme), was also studied; from tissue; host or cells: hen egg white (from the protein's name)
Procedure: The interaction of complexes (2) and (3) with hen egg white lysozyme (HEWL) was investigated using a 10^–5 M solution of the protein. Lysozyme is a widely used model protein for studying the binding of potential metallodrugs. The sample preparation for this assay was carried out using the same protocol of the samples for the DNA interactions studies by UV–vis spectrophotometry. The integrity of the enzyme was checked in each experiment, with a comparison of fresh and incubated samples. UV–vis spectra were recorded before and after incubation with the complex (dissolved in 97% 5 mM Tris/3% DMSO) for 24 h at 37 °C. A metal to protein ratio of 3:1 was used for these studies, a ratio that affords similar results to 10:1 and eases the sample preparation. The experimental time-dependent profiles of the spectra were analyzed as pseudo-first-order reactions by plotting the variation of the absorbance as a function of time.

[4] = system: pBR322 plasmid DNA; experiment: Agarose gel electrophoresis mobility shift; type: binding; settings: r i 0.01 to 0.20, 24 h, 37 °C
Procedure: Complexes (2) and (3) were incubated at 37 °C with a concentration of 0.0625 μg/μL pBR322 plasmid DNA at different concentrations expressed as r i = complex:DNA (base pair) ratio. The r i used was from 0.01 to 0.20, in a total volume of 20 μL. After an incubation period of 24 h, the mobility of the complex-treated pBR322 samples was analyzed by gel electrophoresis at 70 V in Tris/acetate/EDTA buffer. A control of pBR322 was also incubated, and a 1 kb ladder aliquot was loaded into lane 1 of the gel. The gel was stained with an ethidium bromide aqueous solution, and DNA bands were visualized with a UV-transilluminator UVITEC Cambridge UVIDOC HD2 instrument. The studies were performed with 3% (v/v) DMSO as the final solution.

[5] = system: Enterococcus faecalis (ATCC 29212); experiment: Antibacterial MIC, broth dilution; type: cell-based; settings: E. faecalis, 18 h, 37 °C
Procedure: (§1) Antibacterial activity was determined for the title compounds in various Gram-negative and Gram-positive bacterial strains, namely Klebsiella pneumoniae, Escherichia coli (ATCC 25922), Staphylococcus aureus (272123), methicillin-resistant Staphylococcus aureus (ATCC 43300), and Enterococcus faecalis (ATCC 29212). The stock solutions of the tested compounds were prepared in DMSO at a 5 mM concentration. […] All stock solutions were diluted in 100 μL of Mueller Hinton Broth, and then two-fold serial dilutions were performed. Then, a 10^–4 dilution of an overnight bacterial culture in 100 μL of medium was added to each well, except for the medium control wells. The highest concentration of the compounds in the tested samples was 100 μM. The plates were incubated at 37 °C for 18 h. After that, the MIC values were determined by visual inspection.

[6] = system: Klebsiella pneumoniae; experiment: Antibacterial MIC, broth dilution; type: cell-based; settings: K. pneumoniae, 18 h, 37 °C
Procedure: as §1

[7] = system: Staphylococcus aureus (272123); experiment: Antibacterial MIC, broth dilution; type: cell-based; settings: S. aureus, 18 h, 37 °C
Procedure: as §1

[8] = system: Escherichia coli (ATCC 25922); experiment: Antibacterial MIC, broth dilution; type: cell-based; settings: E. coli, 18 h, 37 °C
Procedure: as §1

[9] = system: calf thymus-DNA (CT-DNA); experiment: UV-vis titration with CT-DNA; type: binding; settings: complex/DNA ratio 0 to 0.79; 5 mM Tris, 50 mM NaCl, pH 7.40, 25 °C
Procedure: To investigate the potential binding ability of the palladium complexes (2) and (3) with DNA, UV–vis titrations (240 to 700 nm) were performed at room temperature. During the titrations, the CT-DNA concentration (5.08 × 10^–5 M) was kept constant, while the concentration of each complex (0 to 2.00 × 10^–5 M) was varied. The changes in the typical absorbance of CT-DNA at 260 nm were monitored after equilibration (10 min) and after 1 h of incubation at 37 °C. […] Control experiments with DMSO were performed, and no changes in the CT-DNA spectrum were observed.

T1 sequence (P00698 19-147): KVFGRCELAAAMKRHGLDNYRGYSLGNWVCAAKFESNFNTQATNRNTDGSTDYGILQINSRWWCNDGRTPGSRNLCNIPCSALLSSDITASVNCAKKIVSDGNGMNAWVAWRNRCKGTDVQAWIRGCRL

Clc1ccc(N=C2N[N+](=Cc3c[nH]cn3)[Pd-2]3([S]C(Nc4ccc(Cl)cc4)=N[N+]3=Cc3c[nH]cn3)[S]2)cc1 (stereo not shown) [(2), Bis(1H-imidazole-4-carboxaldehyde-4N-p-chlorophenylthiosemicarbazonato)palladium(II)]
pKa1 ([1]; I = 0.10 M (KCl), 25.0 °C): 2.97 ± 0.02
pKa2 ([1]; I = 0.10 M (KCl), 25.0 °C): 8.40 ± 0.02
pKa3 ([1]; I = 0.10 M (KCl), 25.0 °C): 11.31 ± 0.01
reduction of proton dissociation constant of step I compared to the ligand ([1]; same medium): 0.8 logarithm units
reduction of proton dissociation constant of step II compared to the ligand ([1]; same medium): 2.7 logarithm units
integral of the HPLC signal of intact complex [2]: only slightly diminished
observed rate constant k obs [3]: (8.83 ± 0.05) × 10^–5 s^–1
effect on electrophoretic mobility of supercoiled pBR322 (pure form) [4]: small unwinding
MIC [5]: > 100 µM
MIC [6]: > 100 µM
MIC [7]: > 100 µM
MIC [8]: > 100 µM
change of CT-DNA absorption at 260 nm [9]: absorption values of DNA–complex samples increase
